Molecules are shown by their SMILES.

The data set can be described thus: solvent given as SMILES.

On to `COc1ccc(-c2cc3c(s2)c(C(C)=O)cc(=O)n3Cc2ccccc2)cc1`, for which the emission maximum runs as follows: (in CC#N) 515 nm; (in ClCCl) 512 nm.
Take `N#Cc1ccc(C[C@H](N)C(=O)O)cc1`: the emission maximum was 292.44 nm (in C1CCOC1); 292.99 nm (in CCO); 292.44 nm (in CO); 293.54 nm (in O); 294.16 nm (in O=CO).
For the molecule `N#Cc1c(-n2c3ccccc3c3cc(Br)ccc32)c(C#N)c(-n2c3ccccc3c3cc(Br)ccc32)c(-n2c3ccccc3c3cc(Br)ccc32)c1-n1c2ccccc2c2cc(Br)ccc21`, the emission maximum (in Cc1ccccc1) came to 515 nm.
In turn, `CCN(CC)c1ccc2c(-c3ccccc3C(=O)O)c3c([o+]c2c1)/C(=C/C=C/c1ccc(N(C)C)cc1)CCC3` gave an emission maximum (in ClCCl) of 857 nm.
Take `CCOC(=O)C1=C(C(=O)OCC)C2(c3ccccc3-c3c(Br)cc(Br)cc32)C2(/C=C/c3ccc(Cl)cc3)c3cc(OC)c(OC)cc3CCN12` (stereo not drawn): the emission maximum (in ClCCl) is 495 nm.
Consider `O=C1c2cc3ccccc3cc2C2=Nc3ccc4ccccc4[n+]3[B-](F)(F)N12`, for which, under “in ClCCl”, the emission maximum was determined as 430 nm.
Take `CCOC(=O)CN1C(=O)C2=C(c3ccc(N4CCCCC4)cc3)N(CC(=O)OCC)C(=O)C2=C1c1ccccc1`: the emission maximum was 587 nm (in CC#N), 601 nm (in CS(C)=O) and 563 nm (in Cc1ccccc1).
With `Cc1cc(O)c(C(C)C)cc1/N=C/c1ccc(C(F)(F)F)cc1`, the emission maximum runs as follows: (in C1CCCCC1) 398 nm; (in C1CCOC1) 426 nm; (in C1COCCO1) 424 nm; (in CC#N) 425 nm; (in CC(C)(C)O) 431 nm; (in CC(C)O) 434 nm. Further, the emission maximum was 401 nm (in CCCCCC); 436 nm (in CCCCO); 429 nm (in CCO); 421 nm (in CCOC(C)=O); 434 nm (in CN(C)C=O); 434 nm (in CO). Further, the emission maximum (in CS(C)=O) is given as 439 nm; the emission maximum (in ClC(Cl)Cl) is 430 nm; the emission maximum (in ClCCl) is listed as 424 nm; the emission maximum (in O) is reported as 449 nm; the emission maximum (in OCCO) is 438 nm.
`CC1(C)c2ccccc2N(c2ccccc2)c2ccc(-c3ccc(C(=O)c4ccc(-c5ccc6c(c5)C(C)(C)c5ccccc5N6c5ccccc5)cc4)cc3)cc21`: the emission maximum reads like this: (in Cc1ccccc1) 449.72 nm; (in O=P(c1ccccc1)(c1ccccc1)c1ccccc1Oc1ccccc1P(=O)(c1ccccc1)c1ccccc1) 475 nm.
`COc1ccc(N2c3sc4ccccc4c3Sc3c2sc2ccccc32)cc1`: the emission maximum (in ClCCl) turned out to be 549 nm.
For `N#CC(C#N)=Cc1ccc(-c2cccc(-c3nc4ccccc4s3)c2O)o1`, the emission maximum is reported as 631 nm (in CCO), 605 nm (in ClCCl) and 635 nm (in O).
For the setting “in CO”, `Brc1cnc(-c2ccc(N(c3ccccc3)c3ccccc3)cc2)s1` came in with an emission maximum of 493 nm.
On to `CC(C)(C)c1ccc2c(c1)c1cc(C(C)(C)C)ccc1n2-c1ccc(C(=O)c2ccc(-n3c4ccc(C(C)(C)C)cc4c4cc(C(C)(C)C)ccc43)nc2)cn1`, for which the emission maximum is, setting by setting: (in C1CCOC1) 496.58 nm; (in Cc1ccccc1) 465.19 nm; (in ClCCl) 532.91 nm.
In turn, `CCOC(=O)COc1ccc(C(c2c(C)[nH]c3ccccc23)c2c(C)[nH]c3ccccc23)cc1` had an emission maximum (in C1CCCCC1) of 327 nm, an emission maximum (in CC#N) of 340 nm, an emission maximum (in CO) of 344 nm and an emission maximum (in O) of 350 nm.
With `CC(=O)[B-]1(C(C)=O)OC(c2ccccc2)=CC(c2ccc3ccccc3c2)=[O+]1`, the emission maximum came out at 510 nm (in CC#N) and 419 nm (in ClC(Cl)(Cl)Cl).
`N#Cc1ccc(C2=CC3=c4cc(-c5ccc(C#N)cc5)c5nc(C(F)(F)C(F)(F)C(F)(F)F)nc6c(-c7ccc(C#N)cc7)cc(c4c65)C4=CC(c5ccc(C#N)cc5)=C5N=C(C(F)(F)C(F)(F)C(F)(F)F)N=C2C5C43)cc1` (stereo not drawn) came in with an emission maximum (in C1CCOC1) of 518 nm.
In turn, `CC1=CC(C)=[N+]2C1=C(c1ccc(N3CCCCC3)cc1)c1c(C)cc(C)n1[B-]2(F)F` registered an emission maximum (in C1CCOC1) of 515 nm; an emission maximum (in CC#N) of 511 nm; an emission maximum (in CC(=O)C(C)(C)C) of 516 nm; an emission maximum (in CC(C)=O) of 515 nm; an emission maximum (in CCCCCC) of 511 nm; an emission maximum (in CCOC(C)=O) of 515 nm. This molecule also came in with an emission maximum (in CO) of 514 nm.
On to `Fc1c(-n2c3ccccc3c3ccccc32)c(-c2nnc(-c3ccccc3)o2)c(-n2c3ccccc3c3ccccc32)c(-n2c3ccccc3c3ccccc32)c1-n1c2ccccc2c2ccccc21`, for which, for the setting “in Cc1ccccc1”, the emission maximum was 483 nm.
Take `N#Cc1cc2ccc3cc(C#N)c4ccccc4c3c2c2ccccc12`: the emission maximum (in ClC(Cl)Cl) was found to be 429 nm.
`O=c1ccc2ccc(C#Cc3ccccc3)cc2o1` yielded an emission maximum (in CC#N) of 364 nm.
Regarding `CC(=O)OC[C@@H]1O[C@H](n2cnc3c2N=CN2Cc4c[n+](C)c(C)nc4N=C32)[C@@H](O)[C@H]1O`, the emission maximum (in CC#N) stood at 415 nm, the emission maximum (in CCO) is on record as 416 nm and the emission maximum (in O) is 409 nm.
Under “in ClC(Cl)Cl”, `COc1ccc(-c2cc(-c3ccc(N(C)C)cc3)nc(-c3ccccc3)n2)cc1` gave an emission maximum of 453 nm.
On to `CCCCCCCCCCCCOc1cc2cc(N(C)C)ccc2cc1C=O`, for which the emission maximum came out at 448 nm (in C1CCOC1); 485 nm (in CC#N); 415 nm (in CCCCCC); 521 nm (in CCO); 450 nm (in CCOC(C)=O); 494 nm (in CS(C)=O). Besides, the emission maximum is listed as 469 nm (in ClCCl) and 504 nm (in O).
`Cc1cc(C)c2nc3c(=O)[nH]c(=O)[nH]c3nc2c1`: the emission maximum (in CC#N) turned out to be 461 nm.
With `C(=C\c1cc2ccccc2c2ccccc12)/c1c2ccccc2cc2ccccc12`, the emission maximum (in C1CCOC1) is given as 510 nm.
Turning to `O=Cc1ccc(C=C(c2ccccc2)c2ccccc2)cc1`, the emission maximum (in C1CCOC1) came out at 383 nm.
`COc1ccc(C#CC2=C3CCc4ccccc4C3=[O+][B-](F)(F)O2)cc1`: for the setting “in ClCCl”, the emission maximum was determined as 493 nm.
For the molecule `CC(C)(C)C1CCC(=CS/C=C/c2ccc(/C=C/SC=C3CCC(C(C)(C)C)CC3)cc2)CC1` (stereo not drawn), under “in ClCCl”, the emission maximum came out at 422 nm.
Consider `N#Cc1ccc(-c2pc3ccccc3s2)cc1` (stereo not drawn), for which the emission maximum (in CC#N) is 433 nm.
Consider `C(#Cc1cccc2cc(-c3ccccc3)c3cc(-c4cc[b-]5c(c4)c(-c4ccccc4)cc4cccc(C#Cc6ccccc6)[n+]54)cc[b-]3[n+]12)c1ccccc1`, for which the emission maximum (in C1CCCCC1) stood at 630 nm.
`O=Cc1cc(N2CCCCC2)c2ccc3c(N4CCCCC4)cc(N4CCCCC4)c4ccc1c2c43`: the emission maximum (in C1COCCO1) is listed as 557 nm; the emission maximum (in CC#N) is recorded as 596 nm; the emission maximum (in CC(C)=O) turned out to be 581 nm; the emission maximum (in CCCCCC) was determined as 520 nm; the emission maximum (in CCO) was 635 nm; the emission maximum (in CCOC(C)=O) is recorded as 562 nm. Moreover, the emission maximum by setting is: (in CO) 643 nm; (in CS(C)=O) 601 nm; (in Cc1ccccc1) 554 nm; (in ClCCl) 597 nm.
For the molecule `CC(C)(C)c1ccc(-c2c(-c3cccc(N(c4ccccc4)c4ccccc4)c3)c(C#N)c(-c3cccc(N(c4ccccc4)c4ccccc4)c3)c(-c3ccc(C(C)(C)C)cc3)c2-c2ccc(C(C)(C)C)cc2)cc1`, for the setting “in C1CCOC1”, the emission maximum was found to be 448 nm.
Under “in ClC(Cl)Cl”, `Cc1cc(C)c(C2=C3C=CC=[N+]3[B-]3(F)Oc4cc(O)cc5c6ccc(C)cc6c6cc2n3c6c45)c(C)c1` (stereo not drawn) displayed an emission maximum of 649 nm.
Take `Oc1ccccc1-c1nc(-c2ccccc2)c2ccccn12`: the emission maximum amounted to 479 nm (in C1CCCCC1); 480 nm (in CC#N); 474 nm (in CO); 484 nm (in ClCCl); 481 nm (in O).
`C(=C\c1ccccn1)/c1ccc(N(c2ccc(/C=C/c3ccccn3)cc2)c2ccc(-c3nc4ccccc4nc3-c3ccc(N(c4ccc(/C=C/c5ccccn5)cc4)c4ccc(/C=C/c5ccccn5)cc4)cc3)cc2)cc1` came in with an emission maximum (in C1CCOC1) of 548 nm and an emission maximum (in Cc1ccccc1) of 533 nm.
Take `CCn1c2cc(-c3ccc(-c4cccs4)s3)ccc2c2ccc(-c3ccc(-c4cccs4)s3)cc21`: the emission maximum (in ClCCl) is reported as 447 nm.
Regarding `ClP1(Cl)=NP(Cl)(Cl)=NP(Cl)(Oc2ccc3ccc4cccc5ccc2c3c45)=N1` (stereo not drawn), the emission maximum (in ClCCl) was 417 nm.
As to `CN(C)c1ccc(/C=C/c2ccnc(/C=C/c3ccc(N(C)C)cc3)n2)cc1`, the emission maximum turned out to be 484 nm (in C1CCOC1); 513 nm (in CC#N); 523 nm (in CC(C)=O); 433 nm (in CCCCCCC); 527 nm (in CS(C)=O); 455 nm (in Cc1ccccc1). Besides, for the setting “in ClCCl”, the emission maximum was 493 nm.
As to `COc1ccc2cc([C@H](C)C(=O)O)ccc2c1`, the emission maximum reads like this: (in C1CCOC1) 351.7 nm; (in CC#N) 352.7 nm; (in CC(C)O) 351.3 nm; (in CCCCO) 351.4 nm; (in CCO) 352.3 nm; (in CO) 352.2 nm. The emission maximum reads like this: (in ClCCl) 353.1 nm; (in O) 355.5 nm.
For `O=c1c2ccccc2c2c3c(cccc13)c(-c1ccccc1)c1c3cccc4cccc(c43)c12`, the emission maximum is, setting by setting: (in CC#N) 519 nm; (in CO) 562 nm.
`Brc1ccc(/C=C/c2cnc3ccccc3n2)cc1` gave an emission maximum (in ClCCl) of 455 nm.
For the molecule `F[B-]1(F)n2c(-c3ccccc3)cnc2-c2cccc[n+]21`, the emission maximum is, setting by setting: (in C1CCCCC1) 486 nm; (in C1CCOC1) 509 nm; (in C1COCCO1) 509 nm; (in CC#N) 514 nm; (in CCCCCC) 487 nm; (in CO) 503 nm. Where the note is “in ClC(Cl)Cl”, this molecule came in with an emission maximum of 501 nm.

For the origin of these results see the Deep4Chem optical property database.
